Here are results for 16 compounds from PubChem BioAssay (NCI).

“And” between values parts separate entries of the source, which are not always exact repeats. Equal values may be shown once.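 Five compound concentrations were applied to cells in 96-well plates for 48 hours; endpoints were derived by simple linear interpolation of the resulting dose-response curve. GI50 is the concentration that inhibits growth by half. TGI marks complete inhibition of growth.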

Assay in all cases: NCI-60 cell line screen, 48 h
In test [1] the test system is COLO 205 colon.
Test [2] concerns HL-60(TB) leukemia.
For test [3], the system named is HCT-15 colon.
Test [4] relates to OVCAR-5 ovarian.
Test [5] has as its system NCI-H23 lung.
Test [6] concerns HCC-2998 colon.
The test system of test [7] is SF-268 CNS.
The subject of test [8] is HOP-92 NSCLC.
Test [9] relates to DU-145 prostate.

Take `CC(C)(C)C1CCC(O)(c2ccccc2)CC1` (stereo unspecified): the TGI in [1] was > 100 µM and 31.7 µM; in [2], 66.8 µM and 32.5 µM; in test [3], > 100 µM and 52.4 µM; in test [4], over 100 µM; in test [5], over 100 µM; in [6], > 100 µM and 60 µM.
Take `COc1ccc2cc3n(c(=O)c2c1)CCc1c-3cc(OC)c(OC)c1OC`: the TGI in [7], in test [1], in [2], in test [3], in test [4] and in [8] was over 100 µM throughout. Moreover, the TGI in [5] and in [6] was over 100 µM each time.
In the case of `CN(C)c1ccc(/C=c2/sc3nc(=O)c(-c4ccccc4NC(=O)C(F)(F)F)nn3c2=O)cc1`, the TGI in test [7], in test [1], in [4], in [8], in test [5] and in test [6] was over 100 µM each time.
For the compound `CC(C)(C)c1ccc(OCCOCCOc2ccc(C(C)(C)C)cc2S(N)(=O)=O)c(S(N)(=O)=O)c1`, the TGI in test [7], in test [1], in test [2], in [3], in test [4] and in [8] was over 100 µM in each case. Further, the TGI in test [5] and in [6] was over 100 µM each time.
As for `ON1CCc2c([nH]c3ccccc23)C1c1ccc(Cl)cc1` (stereo unspecified), the TGI was over 100 µM in test [7]; 80.8 µM in [1]; 79.5 µM in test [2]; 99.1 µM in test [4]; 41.1 µM in [8]; 86.9 µM in [5]. In test [6], this compound returned a TGI of 72.3 µM.
Turning to `CNS(=O)(=O)NNS(=O)(=O)c1ccc(C)cc1`, the TGI in test [7], in test [1], in test [2], in test [4], in [8] and in test [5] was over 100 µM throughout. Moreover, in [6], the TGI was over 100 µM.
Consider `CN(C)c1ccc(/C=C2\CCc3ccccc3C2=O)cc1Br`, for which the TGI was over 100 µM in test [7]; over 100 µM in test [1]; 58.5 µM in test [2]; over 100 µM in test [3]; over 100 µM in test [4]; over 100 µM in [8]. Besides, the TGI in [5] and in test [6] was over 100 µM throughout.
For the compound `O=c1c2cc(Br)ccc2nc(CNc2ccccc2)n1-c1ccccc1`, the TGI in [7] is over 54.7 µM; in [1] it was 31.2 µM; in test [2], 39.7 µM; in test [3] it was over 47.9 µM; in test [4] it was over 100 µM; in test [8] it was 37.8 µM. The values for the TGI in [5] and in test [6] were 34.1 µM and 33.7 µM, respectively.
In the case of `CCC12C=C(C(=O)OC)N3c4ccccc4C4CCN(CCC1)C2C43` (stereo unspecified), the TGI in test [7], in test [1], in test [2], in test [3], in test [4] and in test [8] was over 100 µM in each case. Besides, the TGI in test [5] and in test [6] was over 100 µM each time.
For `N#CC1(CCCCl)CCCCC1`, the TGI in [7], in [1], in [2], in test [3], in test [4] and in test [8] was over 100 µM each time. Further, the TGI in test [5] and in test [6] was over 100 µM in each case.
As for `CCCCC(C(=O)C(=O)Nc1ccccc1CC)C(=O)C(C)C` (stereo unspecified), the TGI in test [7], in [1], in test [2], in test [3], in test [4] and in test [8] was over 100 µM each time. Moreover, the TGI in [5] and in [6] was over 100 µM in each case.
Regarding `CN(C)[C@@H]1C(=O)C(C(=O)NCc2nc3[nH]cnc(=S)c3[nH]2)=C(O)[C@@]2(O)C(=O)C3=C(O)c4c(O)cccc4[C@@](C)(O)[C@H]3C[C@@H]12`, the GI50 was 3.87 µM in [1]; 5.66 µM in test [3]; over 100 µM in test [4]; 4.43 µM in test [9]; 8.85 µM in test [5]; 5.09 µM in test [6]. The TGI in test [1], in test [3], in [4], in [9], in [5] and in [6] was over 100 µM in each case.
For the compound `Nc1ccccc1C(=O)/C=C/c1ccccc1O`, the TGI in test [7] is over 100 µM; in test [1] it was over 100 µM; in test [2] it was 58.8 µM; in test [4] it was over 100 µM; in test [8], 81.6 µM; in [5] it was over 100 µM. Further, the TGI in test [6] was over 100 µM.
In the case of `O=C1c2ccccc2C2(O)N(c3ccccc3)C(=S)N(c3ccccc3)C12O` (stereo unspecified), the TGI in test [7], in test [1], in test [3], in test [4], in test [5] and in test [6] was over 100 µM each time.
On to `CC(C)CCCC(C)C1CCC2C3CC([N+](=O)[O-])=C4CC(O)CCC4(C)C3CCC12C` (stereo unspecified), for which the TGI in test [7] turned out to be 62.9 µM; in test [1] it was 45.7 µM; in [2], 60.6 µM; in test [3], 33.6 µM; in test [8], 46.6 µM; in [5], 48.6 µM. Further, the TGI in test [6] is 37.2 µM.
Turning to `N#Cc1c(CC(=O)O)cc(=O)n2c1[nH]c1ccccc12`, the TGI in test [7], in test [1], in test [2], in test [3], in [4] and in [5] was over 100 µM each time. For the same compound, the TGI in test [6] is over 100 µM.
